Data reported in patent publication US20220242870A1, “HETEROCYCLE-FUSED PYRIMIDINE DERIVATIVE AND USE THEREOF” (VORONOI Inc., priority 2019, published 2022).

Key:
human GST-HPK1 (1-346) = biological target: T1, human GST-HPK1 (1-346) (Homo sapiens, UniProt Q92918); assay: HPK1 enzyme inhibitory ability (ADP-Glo kinase assay); format: biochemical; settings: human GST-HPK1 3 ng, ATP 3 uM, 25° C. 2 hours
T1 construct: purified human GST-HPK1 (1-346, Signalchem) enzyme; purchased Signalchem
T1 sequence (Q92918 1-346): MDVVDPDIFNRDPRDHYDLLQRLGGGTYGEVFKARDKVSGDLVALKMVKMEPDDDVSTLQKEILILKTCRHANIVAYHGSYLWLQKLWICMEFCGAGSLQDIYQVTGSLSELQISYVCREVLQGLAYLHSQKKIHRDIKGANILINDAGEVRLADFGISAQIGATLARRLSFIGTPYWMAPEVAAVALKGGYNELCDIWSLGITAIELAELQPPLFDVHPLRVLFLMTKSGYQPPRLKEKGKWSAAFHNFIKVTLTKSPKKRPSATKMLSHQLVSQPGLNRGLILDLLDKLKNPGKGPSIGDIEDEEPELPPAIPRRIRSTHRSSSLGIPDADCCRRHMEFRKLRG
In short: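 Human GST-HPK1(1-346), 3 ng, reacted with 3 uM ATP and specific substrate in 40 mM Tris-HCl pH 7.4, 20 mM MgCl2, 0.5 mg/mL BSA, 50 uM DTT for 2 h at 25° C. ADP-Glo luminescence read; IC50 (nM) relative to untreated solvent control.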

MCF-7 cells = assay: Breast cancer cell line proliferation inhibitory activity (CellTiter-Glo 2.0); format: cell-based; settings: Homo sapiens, MCF7, 120 hours
In short: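 MCF-7 cells exposed to a 12-point, 3-fold dilution series (final 0.00005–10 μM) for 120 h at 37 °C. Viability read by CellTiter-Glo 2.0 luminescence, expressed as percent of vehicle-treated cells. GI50 (nM) derived from the curves.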

human FLT3-ITD enzyme = biological target: T2, human FLT3-ITD enzyme (Homo sapiens, UniProt P36888); assay: FLT3 enzyme inhibitory ability (ADP-Glo kinase assay); format: biochemical; settings: human FLT3-ITD enzyme 10 ng, ATP 10 μM, 25° C. 1 hour
T2 sequence (P36888 1-993): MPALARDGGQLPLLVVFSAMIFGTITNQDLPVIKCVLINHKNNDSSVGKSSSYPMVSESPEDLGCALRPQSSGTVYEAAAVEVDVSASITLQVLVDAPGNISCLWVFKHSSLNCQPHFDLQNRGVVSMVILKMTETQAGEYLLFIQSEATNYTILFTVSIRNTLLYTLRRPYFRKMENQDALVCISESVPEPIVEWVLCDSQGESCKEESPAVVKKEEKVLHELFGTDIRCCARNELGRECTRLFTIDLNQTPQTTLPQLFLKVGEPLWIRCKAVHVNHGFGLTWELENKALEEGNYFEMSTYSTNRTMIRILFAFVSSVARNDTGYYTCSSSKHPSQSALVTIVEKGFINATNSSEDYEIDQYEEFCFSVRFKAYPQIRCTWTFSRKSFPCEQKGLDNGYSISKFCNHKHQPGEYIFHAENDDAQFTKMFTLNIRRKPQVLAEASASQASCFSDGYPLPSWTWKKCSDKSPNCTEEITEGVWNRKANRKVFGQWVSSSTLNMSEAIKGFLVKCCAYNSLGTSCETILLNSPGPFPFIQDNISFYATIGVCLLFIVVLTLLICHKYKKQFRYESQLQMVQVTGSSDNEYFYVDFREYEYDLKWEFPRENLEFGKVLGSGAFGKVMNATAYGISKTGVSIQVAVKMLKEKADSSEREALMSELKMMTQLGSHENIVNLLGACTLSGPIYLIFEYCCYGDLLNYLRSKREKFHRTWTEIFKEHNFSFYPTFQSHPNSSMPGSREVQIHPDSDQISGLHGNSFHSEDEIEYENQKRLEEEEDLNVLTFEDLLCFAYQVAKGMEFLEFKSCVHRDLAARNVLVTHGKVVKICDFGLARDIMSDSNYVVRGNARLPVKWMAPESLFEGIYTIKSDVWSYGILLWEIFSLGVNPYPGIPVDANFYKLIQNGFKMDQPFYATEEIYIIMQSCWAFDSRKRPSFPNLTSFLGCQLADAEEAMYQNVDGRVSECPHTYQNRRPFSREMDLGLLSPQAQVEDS
In short: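 Purified human FLT3-ITD (10 ng) with 10 μM ATP and specific substrate in 40 mM Tris-HCl pH 7.4, 20 mM MgCl2, 0.5 mg/mL BSA, 50 μM DTT, 1 h at 25 °C. ADP formation read by ADP-Glo luminescence; IC50 (nM) versus solvent-treated control.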

MV4-11 cells = assay: AML cell proliferation inhibitory activity (CellTiter-Glo); format: cell-based; settings: Homo sapiens, 72 hours
In short: (§1)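 RS4;11 and MV4-11 cells in RPMI-1640 with 10% FBS, seeded 24 h before treatment, then exposed 72 h to 12 three-fold dilutions (0.3 nM–50 μM final). Viability by CellTiter-Glo luminescence relative to solvent control; GI50 from triplicate experiments.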

RS4;11 cells = assay: as above; format: cell-based; settings: Homo sapiens, 72 hours
In short: as §1

IC50 (human GST-HPK1 (1-346))	GI50 (MCF-7 cells)	IC50 (human FLT3-ITD enzyme)	GI50 (MV4-11 cells)	GI50 (RS4;11 cells)	SMILES
> 500 nM	> 500 nM	≥ 250 nM	250 to 500 nM	> 500 nM	CN1CCN(C2CCN(c3ccc(Nc4nc(N5N=CCC5c5ccccc5)c5sccc5n4)cc3)CC2)CC1 (centres unmarked) [Example 7, N-(4-(4-(4-methylpiperazin-1-yl)piperidin-1-yl)phenyl)-4-(5-phenyl-4,5-dihydro-1H-pyrazol-1-yl)thieno[3,2-d]pyrimidin-2-amine]
> 500 nM	> 500 nM	> 500 nM	> 500 nM	> 500 nM	CN1CCN(C(=O)c2ccc(Nc3nc(N4N=CCC4c4ccccc4)c4sccc4n3)cc2)CC1 (centres unmarked) [Example 11, (4-methylpiperazin-1-yl)(4-((4-(5-phenyl-4,5-dihydro-1H-pyrazol-1-yl)thieno[3,2-d]pyrimidin-2-yl)amino)phenyl)methanone]
> 500 nM	> 500 nM	> 500 nM	250 to 500 nM	> 500 nM	C[C@@H]1CN(Cc2cc(Nc3nc(N4N=CCC4c4ccccc4)c4sccc4n3)cc(C3CC3)c2)C[C@H](C)N1 (stereo partly drawn) [Example 12, N-(3-cyclopropyl-5-(((3R,5S)-3,5-dimethylpiperazin-1-yl)methyl)phenyl)-4-(5-phenyl-4,5-dihydro-1H-pyrazol-1-yl)thieno[3,2-d]pyrimidin-2-amine]
> 500 nM	> 500 nM	> 500 nM	250 to 500 nM	> 500 nM	CN1CCC(Oc2ccc(Nc3nc(N4N=CCC4c4ccccc4)c4sccc4n3)cc2)CC1 (centres unmarked) [Example 13, N-(4-((1-methylpiperidin-4-yl)oxy)phenyl)-4-(5-phenyl-4,5-dihydro-1H-pyrazol-1-yl)thieno[3,2-d]pyrimidin-2-amine]
> 500 nM	> 500 nM	≥ 250 nM	≥ 250 nM	> 500 nM	CN1CCC(NC(=O)c2ccc(Nc3nc(N4N=CCC4c4ccccc4)c4sccc4n3)cc2)CC1 (centres unmarked) [Example 19, N-(1-methylpiperidin-4-yl)-4-((4-(5-phenyl-4,5-dihydro-1H-pyrazol-1-yl)thieno[3,2-d]pyrimidin-2-yl)amino)benzamide]
> 500 nM	> 500 nM	> 500 nM	250 to 500 nM	> 500 nM	CN1Cc2cc(Nc3nc(N4N=CCC4c4ccccc4)c4sccc4n3)ccc2C1=O (centres unmarked) [Example 25, 2-methyl-5-((4-(5-phenyl-4,5-dihydro-1H-pyrazol-1-yl)thieno[3,2-d]pyrimidin-2-yl)amino)isoindolin-1-one]
> 500 nM	> 500 nM	> 500 nM	> 500 nM	> 500 nM	CN(C)CCCn1cc(Nc2nc(N3N=CCC3c3ccccc3)c3sccc3n2)cn1 (centres unmarked) [Example 26, N-(1-(3-(dimethylamino)propyl)-1H-pyrazol-4-yl)-4-(5-phenyl-4,5-dihydro-1H-pyrazol-1-yl)thieno[3,2-d]pyrimidin-2-amine]
> 500 nM	> 500 nM	≥ 250 nM	≥ 250 nM	> 500 nM	C1=NN(c2nc(Nc3cnn(C4CCNCC4)c3)nc3ccsc23)C(c2ccccc2)C1 (centres unmarked) [Example 28, 4-(5-phenyl-4,5-dihydro-1H-pyrazol-1-yl)-N-(1-(piperidin-4-yl)-1H-pyrazol-4-yl)thieno[3,2-d]pyrimidin-2-amine]
> 500 nM	> 500 nM	> 500 nM	250 to 500 nM	> 500 nM	CN1CCC(n2cc(Nc3nc(N4N=CCC4c4ccccc4)c4sccc4n3)cn2)CC1 (centres unmarked) [Example 29, N-(1-(1-methylpiperidin-4-yl)-1H-pyrazol-4-yl)-4-(5-phenyl-4,5-dihydro-1H-pyrazol-1-yl)thieno[3,2-d]pyrimidin-2-amine]
> 500 nM	> 500 nM	> 500 nM	250 to 500 nM	≥ 250 nM	CN1CCN(c2ccc(Nc3nc(N4N=CCC4C4CCCCC4)c4sccc4n3)cc2)CC1 (centres unmarked) [Example 30, 4-(5-cyclohexyl-4,5-dihydro-1H-pyrazol-1-yl)-N-(4-(4-methylpiperazin-1-yl)phenyl)thieno[3,2-d]pyrimidin-2-amine]
> 500 nM	> 500 nM	> 500 nM	> 500 nM	> 500 nM	CN1CCN(c2ccc(Nc3nc(N4N=CCC4c4ccc5ccccc5c4)c4sccc4n3)cc2)CC1 (centres unmarked) [Example 31, N-(4-(4-methylpiperazin-1-yl)phenyl)-4-(5-(naphthalen-2-yl)-4,5-dihydro-1H-pyrazol-1-yl)thieno[3,2-d]pyrimidin-2-amine]
> 500 nM	> 500 nM	> 500 nM	> 500 nM	> 500 nM	CN1CCN(c2ccc(Nc3nc(N4N=CCC4c4cccnc4)c4sccc4n3)cc2)CC1 (centres unmarked) [Example 34, N-(4-(4-methylpiperazin-1-yl)phenyl)-4-(5-(pyridin-3-yl)-4,5-dihydro-1H-pyrazol-1-yl)thieno[3,2-d]pyrimidin-2-amine]
> 500 nM	> 500 nM	> 500 nM	250 to 500 nM	> 500 nM	CN1CCN(c2ccc(Nc3nc(N4N=CCC4c4ccncc4)c4sccc4n3)cc2)CC1 (centres unmarked) [Example 35, N-(4-(4-methylpiperazin-1-yl)phenyl)-4-(5-(pyridin-4-yl)-4,5-dihydro-1H-pyrazol-1-yl)thieno[3,2-d]pyrimidin-2-amine]
> 500 nM	> 500 nM	250 to 500 nM	≥ 250 nM	> 500 nM	CCN1CCN(C2CCN(c3ccc(Nc4nc(N5N=CCC5c5ccccc5)c5sccc5n4)cc3)CC2)CC1 (centres unmarked) [Example 37, N-(4-(4-(4-ethylpiperazin-1-yl)piperidin-1-yl)phenyl)-4-(5-phenyl-4,5-dihydro-1H-pyrazol-1-yl)thieno[3,2-d]pyrimidin-2-amine]
> 500 nM	> 500 nM	≥ 250 nM	≥ 250 nM	> 500 nM	CN(C)C1CCN(c2ccc(Nc3nc(N4N=CCC4c4ccccc4)c4sccc4n3)cc2)CC1 (centres unmarked) [Example 38, N-(4-(4-(dimethylamino)piperidin-1-yl)phenyl)-4-(5-phenyl-4,5-dihydro-1H-pyrazol-1-yl)thieno[3,2-d]pyrimidin-2-amine]
> 500 nM	> 500 nM	250 to 500 nM	≥ 250 nM	> 500 nM	CN(C)[C@@H]1CCN(c2ccc(Nc3nc(N4N=CCC4c4ccccc4)c4sccc4n3)cc2)C1 (stereo partly drawn) [Example 43, N-(4-((R)-3-(dimethylamino)pyrrolidin-1-yl)phenyl)-4-(5-phenyl-4,5-dihydro-1H-pyrazol-1-yl)thieno[3,2-d]pyrimidin-2-amine]
